According to ChEMBL document CHEMBL1201862, “PubChem BioAssay data set” (2004):
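Protocol summary: plate cells (96-well), add compound at 5 concentrations, incubate 48 h, interpolate endpoints linearly. GI50: concentration for 50% inhibition of growth.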 Activity calls are given as the source filed them. No stated cut-off is given here; in the data, active = GI50 up to about 1.1 µM and inactive = higher.

Tests used:
Assay in all cases: NCI tumour cell line growth inhibition, 48 h
SNB-75 = test system: SNB-75
UACC-257 = test system: UACC-257
SW-620 = test system: SW-620
NCI-H23 = test system: NCI-H23
OVCAR-4 = test system: OVCAR-4
U-251 = test system: U-251
KM12 = test system: KM12
RPMI-8226 = test system: RPMI-8226
HL-60 = test system: HL-60
K562 = test system: K562
M14 = test system: M14
MDA-MB-435 = test system: MDA-MB-435
SF-268 = test system: SF-268
A498 = test system: A498
MDA-N = test system: MDA-N
A549 = test system: A549
HCT-15 = test system: HCT-15
PC-3 = test system: PC-3
786-0 = test system: 786-0
CCRF-CEM = test system: CCRF-CEM
SN12C = test system: SN12C
HOP-92 = test system: HOP-92
EKVX = test system: EKVX
MOLT-4 = test system: MOLT-4
MDA-MB-231 = test system: MDA-MB-231
Hs-578T = test system: Hs-578T
NCI-H522 = test system: NCI-H522
NCI-H460 = test system: NCI-H460
T47D = test system: T47D
UACC-62 = test system: UACC-62
HT-29 = test system: HT-29
SF-539 = test system: SF-539
SK-OV-3 = test system: SK-OV-3
SF-295 = test system: SF-295
NCI-H226 = test system: NCI-H226
SK-MEL-28 = test system: SK-MEL-28
SK-MEL-5 = test system: SK-MEL-5
SNB-19 = test system: SNB-19
MCF7 = test system: MCF7
COLO 205 = test system: COLO 205
HCC 2998 = test system: HCC 2998
LOX IMVI = test system: LOX IMVI
TK-10 = test system: TK-10
SK-MEL-2 = test system: SK-MEL-2
OVCAR-8 = test system: OVCAR-8
UO-31 = test system: UO-31
Malme-3M = test system: Malme-3M
ACHN = test system: ACHN
IGROV-1 = test system: IGROV-1
BT-549 = test system: BT-549
OVCAR-5 = test system: OVCAR-5
NCI/ADR-RES = test system: NCI/ADR-RES
DU-145 = test system: DU-145
OVCAR-3 = test system: OVCAR-3
CAKI-1 = test system: CAKI-1
HCT-116 = test system: HCT-116
RXF 393 = test system: RXF 393
HOP-62 = test system: HOP-62

In the case of `OCc1cc2c([nH]c3ccccc32)c(C(O)CO)n1` (stereo not drawn), the GI50 (SNB-75) was > 100 µM (inactive), the GI50 (UACC-257) was > 100 µM (inactive) and the GI50 (SW-620) was > 100 µM (inactive). The GI50 (NCI-H23) was > 100 µM (inactive), the GI50 (OVCAR-4) was > 100 µM (inactive) and the GI50 (U-251) was > 100 µM (inactive). The GI50 (KM12) was > 100 µM (inactive), the GI50 (RPMI-8226) was > 100 µM (inactive) and the GI50 (HL-60) was > 100 µM (inactive). For the same compound, the GI50 (K562) was > 100 µM (inactive), the GI50 (M14) was > 100 µM (inactive) and the GI50 (MDA-MB-435) was > 100 µM (inactive). For the same compound, the GI50 (SF-268) was > 100 µM (inactive), the GI50 (A498) was > 100 µM (inactive) and the GI50 (MDA-N) was > 100 µM (inactive). For the same compound, the GI50 (A549) was > 100 µM (inactive), the GI50 (HCT-15) was greater than 100 µM and the GI50 (PC-3) was > 100 µM (inactive). The GI50 (786-0) was > 100 µM (inactive), the GI50 (CCRF-CEM) was > 100 µM (inactive) and the GI50 (SN12C) was > 100 µM (inactive). The GI50 (HOP-92) was > 100 µM (inactive), the GI50 (EKVX) was > 100 µM (inactive) and the GI50 (MOLT-4) was > 100 µM (inactive). The GI50 (MDA-MB-231) was > 100 µM (inactive), the GI50 (Hs-578T) was > 100 µM (inactive) and the GI50 (NCI-H522) was > 100 µM (inactive). The GI50 (NCI-H460) was > 100 µM (inactive), the GI50 (T47D) was > 100 µM (inactive) and the GI50 (UACC-62) was > 100 µM (inactive). For the same compound, the GI50 (HT-29) was > 100 µM (inactive), the GI50 (SF-539) was > 100 µM (inactive) and the GI50 (SK-OV-3) was > 100 µM (inactive). For the same compound, the GI50 (SF-295) was > 100 µM (inactive), the GI50 (NCI-H226) was > 100 µM (inactive) and the GI50 (SK-MEL-28) was > 100 µM (inactive). The GI50 (SK-MEL-5) was > 100 µM (inactive), the GI50 (SNB-19) was > 100 µM (inactive) and the GI50 (MCF7) was > 100 µM (inactive). The GI50 (COLO 205) was > 100 µM (inactive), the GI50 (HCC 2998) was > 100 µM (inactive) and the GI50 (LOX IMVI) was > 100 µM (inactive). For the same compound, the GI50 (TK-10) was > 100 µM (inactive), the GI50 (SK-MEL-2) was > 100 µM (inactive) and the GI50 (OVCAR-8) was > 100 µM (inactive). For the same compound, the GI50 (UO-31) was > 100 µM (inactive), the GI50 (Malme-3M) was > 100 µM (inactive) and the GI50 (ACHN) was > 100 µM (inactive). The GI50 (IGROV-1) was > 100 µM (inactive), the GI50 (BT-549) was > 100 µM (inactive) and the GI50 (OVCAR-5) was > 100 µM (inactive). For the same compound, the GI50 (NCI/ADR-RES) was > 100 µM (inactive), the GI50 (DU-145) was > 100 µM (inactive) and the GI50 (OVCAR-3) was > 100 µM (inactive). For the same compound, the GI50 (CAKI-1) was > 100 µM (inactive) and the GI50 (HCT-116) was > 100 µM (inactive).
With `O=c1[nH]c(NCc2cccnc2)nc2[nH]cnc12` the GI50 (SNB-75) was > 100 µM (inactive), the GI50 (UACC-257) was > 100 µM (inactive) and the GI50 (SW-620) was > 100 µM (inactive). The GI50 (NCI-H23) was > 100 µM (inactive), the GI50 (OVCAR-4) was > 100 µM (inactive) and the GI50 (U-251) was > 100 µM (inactive). The GI50 (KM12) was > 100 µM (inactive), the GI50 (RPMI-8226) was > 100 µM (inactive) and the GI50 (K562) was > 100 µM (inactive). The GI50 (M14) was > 100 µM (inactive), the GI50 (MDA-MB-435) was > 100 µM (inactive) and the GI50 (SF-268) was > 100 µM (inactive). The GI50 (A498) was > 100 µM (inactive), the GI50 (MDA-N) was > 100 µM (inactive) and the GI50 (A549) was > 100 µM (inactive). The GI50 (HCT-15) was greater than 100 µM, the GI50 (PC-3) was > 100 µM (inactive) and the GI50 (786-0) was > 100 µM (inactive). For the same compound, the GI50 (CCRF-CEM) was > 100 µM (inactive), the GI50 (SN12C) was > 100 µM (inactive) and the GI50 (HOP-92) was > 100 µM (inactive). The GI50 (EKVX) was > 100 µM (inactive), the GI50 (MOLT-4) was > 100 µM (inactive) and the GI50 (RXF 393) was > 100 µM (inactive). For the same compound, the GI50 (MDA-MB-231) was > 100 µM (inactive), the GI50 (Hs-578T) was > 100 µM (inactive) and the GI50 (NCI-H522) was 41.4 µM (inactive). For the same compound, the GI50 (NCI-H460) was > 100 µM (inactive), the GI50 (T47D) was > 100 µM (inactive) and the GI50 (UACC-62) was > 100 µM (inactive). The GI50 (HT-29) was > 100 µM (inactive), the GI50 (SF-539) was > 100 µM (inactive) and the GI50 (SK-OV-3) was > 100 µM (inactive). For the same compound, the GI50 (SF-295) was > 100 µM (inactive), the GI50 (HOP-62) was > 100 µM (inactive) and the GI50 (NCI-H226) was > 100 µM (inactive). For the same compound, the GI50 (SK-MEL-5) was > 100 µM (inactive), the GI50 (SNB-19) was > 100 µM (inactive) and the GI50 (MCF7) was > 100 µM (inactive). For the same compound, the GI50 (COLO 205) was > 100 µM (inactive), the GI50 (HCC 2998) was > 100 µM (inactive) and the GI50 (LOX IMVI) was > 100 µM (inactive). For the same compound, the GI50 (TK-10) was > 100 µM (inactive), the GI50 (SK-MEL-2) was > 100 µM (inactive) and the GI50 (OVCAR-8) was > 100 µM (inactive). The GI50 (UO-31) was > 100 µM (inactive), the GI50 (Malme-3M) was > 100 µM (inactive) and the GI50 (ACHN) was > 100 µM (inactive). For the same compound, the GI50 (IGROV-1) was > 100 µM (inactive), the GI50 (BT-549) was > 100 µM (inactive) and the GI50 (OVCAR-5) was > 100 µM (inactive). For the same compound, the GI50 (NCI/ADR-RES) was > 100 µM (inactive), the GI50 (DU-145) was > 100 µM (inactive) and the GI50 (OVCAR-3) was > 100 µM (inactive). The GI50 (CAKI-1) was > 100 µM (inactive) and the GI50 (HCT-116) was > 100 µM (inactive).
With `COc1cc2c(cc1OC)C1C(O)C(OC)C(Br)C3(Br)CCN(C2)C13` (stereo not drawn) the GI50 (SNB-75) was 78.9 µM (inactive), the GI50 (UACC-257) was > 100 µM (inactive) and the GI50 (SW-620) was > 100 µM (inactive). For the same compound, the GI50 (NCI-H23) was > 100 µM (inactive), the GI50 (OVCAR-4) was > 100 µM (inactive) and the GI50 (U-251) was 47.1 µM (inactive). The GI50 (KM12) was 94.8 µM (inactive), the GI50 (RPMI-8226) was > 100 µM (inactive) and the GI50 (HL-60) was > 100 µM (inactive). The GI50 (M14) was > 100 µM (inactive), the GI50 (MDA-MB-435) was > 100 µM (inactive) and the GI50 (SF-268) was 9.04 µM (inactive). For the same compound, the GI50 (A498) was > 100 µM (inactive), the GI50 (MDA-N) was > 100 µM (inactive) and the GI50 (A549) was > 100 µM (inactive). The GI50 (HCT-15) was greater than 100 µM, the GI50 (PC-3) was > 100 µM (inactive) and the GI50 (786-0) was > 100 µM (inactive). The GI50 (CCRF-CEM) was > 100 µM (inactive), the GI50 (SN12C) was > 100 µM (inactive) and the GI50 (HOP-92) was 15.1 µM (inactive). For the same compound, the GI50 (EKVX) was > 100 µM (inactive), the GI50 (MOLT-4) was 54 µM (inactive) and the GI50 (RXF 393) was 18.5 µM (inactive). For the same compound, the GI50 (MDA-MB-231) was > 100 µM (inactive), the GI50 (Hs-578T) was > 100 µM (inactive) and the GI50 (NCI-H522) was 50.8 µM (inactive). The GI50 (NCI-H460) was 56.6 µM (inactive), the GI50 (T47D) was 84.1 µM (inactive) and the GI50 (UACC-62) was > 100 µM (inactive). For the same compound, the GI50 (HT-29) was > 100 µM (inactive), the GI50 (SF-539) was > 100 µM (inactive) and the GI50 (SK-OV-3) was > 100 µM (inactive). For the same compound, the GI50 (SF-295) was > 100 µM (inactive), the GI50 (HOP-62) was > 100 µM (inactive) and the GI50 (NCI-H226) was > 100 µM (inactive). The GI50 (SK-MEL-28) was > 100 µM (inactive), the GI50 (SK-MEL-5) was > 100 µM (inactive) and the GI50 (SNB-19) was 46.2 µM (inactive). For the same compound, the GI50 (MCF7) was > 100 µM (inactive), the GI50 (COLO 205) was > 100 µM (inactive) and the GI50 (HCC 2998) was 70.3 µM (inactive). The GI50 (TK-10) was > 100 µM (inactive), the GI50 (SK-MEL-2) was > 100 µM (inactive) and the GI50 (OVCAR-8) was 41.3 µM (inactive). The GI50 (UO-31) was > 100 µM (inactive), the GI50 (Malme-3M) was 42.6 µM (inactive) and the GI50 (ACHN) was > 100 µM (inactive). For the same compound, the GI50 (IGROV-1) was > 100 µM (inactive), the GI50 (BT-549) was > 100 µM (inactive) and the GI50 (OVCAR-5) was > 100 µM (inactive). The GI50 (NCI/ADR-RES) was > 100 µM (inactive), the GI50 (DU-145) was > 100 µM (inactive) and the GI50 (OVCAR-3) was > 100 µM (inactive). The GI50 (CAKI-1) was > 100 µM (inactive) and the GI50 (HCT-116) was > 100 µM (inactive).
